Results: ChEMBL document CHEMBL5120836, “Discovery of novel 7,8-dihydropteridine-6(5H)-one-based DNA-PK inhibitors as potential anticancer agents via scaffold hopping strategy” (Eur J Med Chem, 2022)
In brackets after ≈: the same amount, converted by molar mass. Activity calls are given as the source filed them. No cut-off for these calls is given here.

How the values were obtained:
HCT-116 [1] = experiment: Induction of apoptosis in human HCT-116 cells assessed as early apoptotic cells at 1 uM incubated for 24 hrs in presence of 100 nM doxorubicin by AnnexinV-FITC/PI staining based flow cytometry (reference value: 3.04%); assay type: functional
HCT-116 [2] = experiment: Induction of apoptosis in human HCT-116 cells assessed as viable cells at 1 uM incubated for 24 hrs in presence of 100 nM doxorubicin by AnnexinV-FITC/PI staining based flow cytometry (reference value: 93.9%); assay type: functional; conditions: read-out: Activity
[3] = molecular target: Phosphatidylinositol 4,5-bisphosphate 3-kinase catalytic subunit beta isoform (Homo sapiens, UniProt P42338); experiment: Inhibition of human PI3Kbeta by ADP-Glo assay; assay type: toxicity
HCT-116 [4] = experiment: Antiproliferative activity against human HCT-116 cells assessed as inhibition of cell growth incubated for 48 hrs by MTT assay; assay type: functional, cell-based; conditions: HCT-116, 48 h
MDA-MB-231 [5] = experiment: Synergistic antiproliferative activity against human MDA-MB-231 cells assessed as inhibition of cell growth in presence of 100 nM doxorubicin by MTT assay; assay type: functional, cell-based
HepG2 [6] = experiment: Synergistic antiproliferative activity against Doxorubicin-resistant human HepG2 cells assessed as inhibition of cell growth in presence of 100 nM doxorubicin by MTT assay; assay type: functional, cell-based
HCT-116 [7] = experiment: Inhibition of cell migration in human HCT-116 cells at 1 uM measured after 24 hrs by wound healing assay; assay type: functional, cell-based
HCT-116 [8] = experiment: Disruption of mitochondrial function in human HCT-116 cells assessed as decrease in mitochondrial membrane potential by measuring proportion of cells with green fluorescence at 1 uM incubated for 24 hrs by JC-1 staining based flow cytometry (reference value: 0.566%); assay type: functional; parameters: scale not given: the % may be the effect or the level left
HL-60 [9] = experiment: Synergistic antiproliferative activity against human HL-60 cells assessed as combination index at 1 uM in presence of 0.1 uM doxorubicin by MTT assay; assay type: functional
HL-60 [10] = experiment: Synergistic antiproliferative activity against human HL-60 cells assessed as combination index at 12.5 uM in presence of 0.1 uM doxorubicin by MTT assay; assay type: functional
HL-60 [11] = experiment: Synergistic antiproliferative activity against human HL-60 cells assessed as combination index at 50 uM in presence of 0.1 uM doxorubicin by MTT assay; assay type: functional
MCF7 [12] = experiment: Synergistic antiproliferative activity against human MCF7 cells assessed as combination index at 6.25 uM in presence of 0.1 uM doxorubicin by MTT assay; assay type: functional
MCF7 [13] = experiment: Synergistic antiproliferative activity against human MCF7 cells assessed as combination index at 25 uM in presence of 0.1 uM doxorubicin by MTT assay; assay type: functional
MCF7 [14] = experiment: Synergistic antiproliferative activity against human MCF7 cells assessed as combination index at 50 uM in presence of 0.1 uM doxorubicin by MTT assay; assay type: functional
MDA-MB-231 [15] = experiment: Synergistic antiproliferative activity against human MDA-MB-231 cells assessed as combination index at 0.1 uM in presence of 0.1 uM doxorubicin by MTT assay; assay type: functional
MDA-MB-231 [16] = experiment: Synergistic antiproliferative activity against human MDA-MB-231 cells assessed as combination index at 1 uM in presence of 0.1 uM doxorubicin by MTT assay; assay type: functional
MDA-MB-231 [17] = experiment: Synergistic antiproliferative activity against human MDA-MB-231 cells assessed as combination index at 6.25 uM in presence of 0.1 uM doxorubicin by MTT assay; assay type: functional
MDA-MB-231 [18] = experiment: Synergistic antiproliferative activity against human MDA-MB-231 cells assessed as combination index at 25 uM in presence of 0.1 uM doxorubicin by MTT assay; assay type: functional
MDA-MB-231 [19] = experiment: Additive antiproliferative activity against human MDA-MB-231 cells assessed as combination index at 200 uM in presence of 0.1 uM doxorubicin by MTT assay; assay type: functional
HepG2 [20] = experiment: Synergistic antiproliferative activity against Doxorubicin-resistant human HepG2 cells assessed as combination index at 0.5 uM in presence of 0.1 uM doxorubicin by MTT assay; assay type: functional
HepG2 [21] = experiment: Synergistic antiproliferative activity against Doxorubicin-resistant human HepG2 cells assessed as combination index at 12.5 uM in presence of 0.1 uM doxorubicin by MTT assay; assay type: functional
HepG2 [22] = experiment: Synergistic antiproliferative activity against Doxorubicin-resistant human HepG2 cells assessed as combination index at 200 uM in presence of 0.1 uM doxorubicin by MTT assay; assay type: functional
HCT-116 [23] = experiment: Induction of apoptosis in human HCT-116 cells assessed as necrotic cells at 1 uM incubated for 24 hrs in presence of 100 nM doxorubicin by AnnexinV-FITC/PI staining based flow cytometry (reference value: 0.031%); assay type: functional
HCT-116 [24] = experiment: Induction of cell cycle arrest in human HCT-116 cells assessed as increase in accumulation of cells at […] at 1 uM incubated for 24 hrs in presence of 100 nM doxorubicin by PI staining based flow cytometry; assay type: functional
[25] = Lipophilicity, logP of the compound; assay type: physicochemical; conditions: octanol/water
[26] = Kinetic solubility of the compound in phosphate-buffered solution at pH 7.4 incubated for 24 hrs by HPLC-MS/MS analysis; assay type: physicochemical; conditions: phosphate buffer, read-out: Kinetic_solubility
[27] = Plasma protein binding in rat assessed as free fraction; assay type: ADME, cell-free
[28] = Plasma protein binding in human assessed as free fraction; assay type: ADME, cell-free
[29] = Intrinsic clearance in rat liver microsomes; assay type: ADME, Microsome; conditions: read-out: CLH
[30] = Tmax in Sprague-Dawley rat at 5 mg/kg, po; assay type: ADME, organism-based; conditions: in vivo
[31] = Cmax in Sprague-Dawley rat at 5 mg/kg, po; assay type: ADME, organism-based; parameters: dose 5 mg/kg, route po; conditions: in vivo
[32] = AUC (0 to infinity) in Sprague-Dawley rat at 5 mg/kg, po; assay type: ADME, organism-based; parameters: time infinity, dose 5 mg/kg, route po; conditions: in vivo
HL-60 [33] = experiment: Synergistic antitumor activity against human HL-60 cells xenografted in BALB/c nude mouse assessed as tumor weight at 100 mg/kg, po qd for 16 days co-administered with doxorubicin (reference value: 27.9%); assay type: functional; conditions: HL-60, 384 h, time 16 day
[34] = Toxicity in BALB/c nude mouse xenografted with human HL-60 cells assessed as serum lymphocytes content at 100 mg/kg, po qd for 16 days (reference value: 2.65X10^9/L); assay type: organism-based; conditions: in vivo, 384 h, time 16 day
[35] = Toxicity in BALB/c nude mouse xenografted with human HL-60 cells assessed as serum granulocytes content at 100 mg/kg, po qd for 16 days (reference value: 0.51X10^9/L); assay type: organism-based; conditions: in vivo, 384 h, time 16 day
[36] = Toxicity in BALB/c nude mouse xenografted with human HL-60 cells assessed as HGB level at 100 mg/kg, po qd for 16 days (reference value: 156 g/L); assay type: organism-based; conditions: in vivo, 384 h, time 16 day
[37] = Toxicity in BALB/c nude mouse xenografted with human HL-60 cells assessed as RDW-SD level at 100 mg/kg, po qd for 16 days (reference value: 34 fL); assay type: organism-based; conditions: in vivo, 384 h, time 16 day
[38] = Toxicity in BALB/c nude mouse xenografted with human HL-60 cells assessed as PDW level at 100 mg/kg, po qd for 16 days (reference value: 8.16 fL); assay type: organism-based; conditions: in vivo, 384 h, time 16 day
[39] = Toxicity in BALB/c nude mouse xenografted with human HL-60 cells assessed as PCT level at 100 mg/kg, po qd for 16 days (reference value: 0.7%); assay type: organism-based; conditions: in vivo, 384 h, time 16 day

Phosphatidylinositol 4,5-bisphosphate 3-kinase catalytic subunit beta isoform, sequence (P42338 whole entry, canonical isoform): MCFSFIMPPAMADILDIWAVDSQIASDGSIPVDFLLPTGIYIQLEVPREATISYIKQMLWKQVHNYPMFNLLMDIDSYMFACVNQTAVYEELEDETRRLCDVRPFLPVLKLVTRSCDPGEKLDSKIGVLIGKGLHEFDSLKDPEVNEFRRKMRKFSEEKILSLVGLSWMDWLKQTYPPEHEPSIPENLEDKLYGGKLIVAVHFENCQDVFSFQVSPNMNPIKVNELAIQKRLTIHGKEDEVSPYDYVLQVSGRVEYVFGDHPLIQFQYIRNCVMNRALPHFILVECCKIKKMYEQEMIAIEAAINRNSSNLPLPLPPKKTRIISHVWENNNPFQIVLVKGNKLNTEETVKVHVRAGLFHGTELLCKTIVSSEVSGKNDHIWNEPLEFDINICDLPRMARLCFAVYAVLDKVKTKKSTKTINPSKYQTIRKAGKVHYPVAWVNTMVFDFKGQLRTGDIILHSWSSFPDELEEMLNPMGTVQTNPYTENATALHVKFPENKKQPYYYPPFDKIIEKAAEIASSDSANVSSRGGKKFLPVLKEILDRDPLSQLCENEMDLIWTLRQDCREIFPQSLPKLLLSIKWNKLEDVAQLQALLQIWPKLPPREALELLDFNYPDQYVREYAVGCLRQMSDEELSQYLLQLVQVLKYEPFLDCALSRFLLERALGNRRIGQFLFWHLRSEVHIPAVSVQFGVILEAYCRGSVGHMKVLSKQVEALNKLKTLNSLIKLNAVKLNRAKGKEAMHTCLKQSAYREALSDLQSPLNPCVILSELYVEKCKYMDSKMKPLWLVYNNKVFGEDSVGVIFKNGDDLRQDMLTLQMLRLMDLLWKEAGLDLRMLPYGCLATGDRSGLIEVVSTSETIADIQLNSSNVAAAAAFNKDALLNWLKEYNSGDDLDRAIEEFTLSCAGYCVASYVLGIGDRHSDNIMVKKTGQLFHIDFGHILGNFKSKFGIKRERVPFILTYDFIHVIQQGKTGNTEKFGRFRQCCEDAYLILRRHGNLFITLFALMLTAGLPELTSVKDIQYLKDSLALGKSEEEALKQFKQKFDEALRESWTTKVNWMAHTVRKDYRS

## Cc1cc2ncnn2cc1Nc1ncc2c(n1)N(C1CCOCC1)CC(=O)N2C
HCT-116 [1]
  Activity: 13.3%
HCT-116 [2]
  viability at 1 µM: 79.1%
[3]
  IC50: 0.83 µM
HCT-116 [4]
  IC50: 24.1 µM
MDA-MB-231 [5]
  Activity: Active
HepG2 [6]
  Activity: Active
HCT-116 [7]
  inhibition: Active
HCT-116 [8]
  Activity: 3.55%
HL-60 [9]
  CI: 0.00616
HL-60 [10]
  CI: 0.06945
HL-60 [11]
  CI: 0.2758
MCF7 [12]
  CI: 0.06841
MCF7 [13]
  CI: 0.06966
MCF7 [14]
  CI: 0.1215
MDA-MB-231 [15]
  CI: 0.4431
MDA-MB-231 [16]
  CI: 0.2676
MDA-MB-231 [17]
  CI: 0.3693
MDA-MB-231 [18]
  CI: 0.5933
MDA-MB-231 [19]
  CI: 1.006
HepG2 [20]
  CI: 0.01657
HepG2 [21]
  CI: 0.04474
HepG2 [22]
  CI: 0.2062
HCT-116 [23]
  Activity: 0.002%
HCT-116 [24]
  Activity: Active
[25]
  logP: 1.28
[26]
  solubility kinetic at 24 h: 80 µg/mL (≈ 203 µM)
[27]
  fraction unbound: 0.667
[28]
  fraction unbound: 0.859
[29]
  microsomal CLint: < 9.6 µL/min/mg
[30]
  Tmax: 25.2 min
[31]
  Cmax: 810 ng/mL
[32]
  AUC(0-inf): 3600 ng·h/mL
HL-60 [33]
  inhibition in vivo at 100 mg/kg: 52.4%
[34]
  Activity: 3.2 10^9/L
[35]
  Activity: 0.49 10^9/L
[36]
  Activity: 148 g/L
[37]
  Activity: 36 fL
[38]
  Activity: 7.4 fL
[39]
  Activity: 0.641%
